In patent US20160158317A1, “Antimicrobial Peptide Variants and Polynucleotides Encoding Same” (Adenium Biotech A/S, priority 2010, published 2016):
“And” between values parts separate entries of the source, which are not always exact repeats. Equal values may be shown once. Marks after values point to notes of the source that are not given here.

Test system: Escherichia coli AID#172
Assay: Peritonitis/sepsis model in neutropenic NMRI mice, effect over time of 7.5 mg/kg (Example 3)
Format: in vivo
Set-up: key to Score T = 0 hour / Score T = 5 hours / Score T = 2 hours: Score 0: Healthy.; Score 1: Minor clinical signs of infection and inflammation e.g. observations of minor signs of distress or changed activity.; Score 2: Clear signs of infection like, social withdrawal, lack of curiosity, changed body position, piloerection, or changes in pattern of movement.; Score 3: Severe signs of infection like stiff movements, lack of curiosity, changed body position, piloerection, pain, or changes in pattern of movement.; Score 4: Severe pain and the mouse was sacrificed immediately to minimize the suffering of the animal.; Score 5: The mouse was dead
Conditions: for CFU levels compared to vehicle: peritoneal fluid at 2 and 5 hours, blood at 5 hours, p<0.01; for difference in CFU levels compared to vehicle treatment, blood / difference in CFU levels compared to vehicle treatment, peritoneum: single i.v. dose (NZ17074 7.5 mg/kg, Meropenem 40 mg/kg); for Score T = 0 hour: score at start of treatment; for log10 CFU Mean Blood / log10 CFU mean PF: group mean; for log10 CFU mean PF / log10 CFU PF: peritoneal fluid
Protocol: The purpose of this study was to investigate the in vivo efficacy of NZ17074 following intravenous (i.v.) administration of a single dose of 7.5 mg/kg. The effect was tested against Escherichia coli AID#172 in the peritonitis model in neutropenic NMRI mice to avoid the use of mucin as normally applied in the murine peritonitis model. The mice were rendered neutropenic by cyclophosphamide injections. Treatment with 40 mg/kg meropenem was included as a positive control group and treatment with vehicle was included as a negative control group. The colony counts in peritoneal fluid and blood were determined at 2 and 5 hours after treatment.
• 30 outbred, NMRI female mice, 28-32 grams (Harlan Scandinavia) • Escherichia coli AID#172 from Statens Serum Institute, Copenhagen, Denmark. Clinical isolate from a human wound from 2003. Multiresistant (Ampicillin, Ceftazidime, Aztreonam, Gentamicin, Ciprofloxacin) • NZ17074 in Ringer Acetate pH 6, 1.2 ml 0.75 mg/ml. […] Lot no. 09466C Date of expiration: 08-2013 • APODAN®(A-Pharma, 1 g cyclophosphamide) Batch nr. 928491 • Date of expiration: May 2012 • Water, sterile • 0.9% saline, sterile • 5% Horse Blood Agar plates • Lactose bromthymol blue agar plates
The mice were rendered neutropenic by injecting 0.5 ml cyclophosphamide solution intraperitoneally 4 days (200 mg/kg) and 1 day (100 mg/kg) prior to inoculation.
Fresh overnight E. coli AID#172 colonies from a 5% Horse Blood Agar plate were suspended and diluted in sterile saline to approximately 2×10^6CFU/ml.
One hour before start of treatment (time −1 hour) mice were inoculated intraperitoneally with 0.5 ml of the E. coli suspension in the lateral lower quadrant of the abdomen.
The mice were clinically scored for signs of infection at the time of each sampling. • Score 0: Healthy. • Score 1: Minor clinical signs of infection and inflammation e.g. observations of minor signs of distress or changed activity. • Score 2: Clear signs of infection like, social withdrawal, lack of curiosity, changed body position, piloerection, or changes in pattern of movement. • Score 3: Severe signs of infection like stiff movements, lack of curiosity, forced ventilation, changed body position, piloerection, pain, or changes in pattern o movement. • Score 4: Severe pain and the mouse was sacrificed immediately to minimize the suffering of the animal. • Score 5: The mouse was dead.
The mice were treated i.v. in the lateral tail vein over approximately 30 seconds with a single dose of NZ17074, meropenem or vehicle at time 0 hour (see Table 1). The dosing was based on a mean weight of 30 g. Mice that weighed 28-32 g received 0.30 ml solution. Mice that weighed 27-28 g received 0.25 ml solution and mice that weighed 32.1-36 g received 0.35 ml solution. Mouse 17 accidently received 0.35 ml although it weighed 29.5 g.
Colony counts were determined from blood and peritoneal fluid at 0, 2 and 5 hours after treatment according to Table 1.
The mice were anesthetized with O2+CO2 and blood was collected by axilliary cut down. The mice were sacrificed by cervical dislocation and a total of 2 ml sterile saline was injected i.p. and the abdomen gently massaged before it was opened and fluid sampled with a pipette. Each sample was 10 fold diluted in saline and 20-microliter spots were applied on blood agar plates. All agar plates were incubated 18-22 hours at 35° C. in ambient air.
The CFU numbers are log10 transformed before performing calculations to obtain a normal distribution.

[1] = Meropenem 40 mg/kg single dose, sampling T = 2, individual mice
[2] = Meropenem 40 mg/kg single dose, sampling T = 5, p < 0.01 vs vehicle
[3] = Meropenem 40 mg/kg single dose, sampling T = 5, individual mice
[4] = Meropenem 40 mg/kg single dose, individual mice

Structure (SMILES): C[C@@H](O)[C@H]1C(=O)N2C(C(=O)O)=C(S[C@@H]3CN[C@H](C(=O)N(C)C)C3)[C@H](C)[C@H]12 [meropenem]
- CFU levels compared to vehicle, blood (40 mg/kg i.v., 2 hours after treatment): lack of significance
- CFU levels compared to vehicle (40 mg/kg i.v.): significantly (p<0.01) reduced CFU levels
- CFU levels compared to vehicle (40 mg/kg i.v., listed as Meropenem): significant reduction
- difference in CFU levels compared to vehicle treatment, blood (2 hours): blood −0.82 log log cfu/ml
- difference in CFU levels compared to vehicle treatment, peritoneum (2 hours): 2 hours: peritoneum −1.51 log cfu/ml
- difference in CFU levels compared to vehicle treatment, blood (5 hours): blood −1.64 log log cfu/ml
- difference in CFU levels compared to vehicle treatment, peritoneum (5 hours): 5 hours: peritoneum −1.51 log cfu/ml
- Score T = 0 hour (Meropenem 40 mg/kg single dose, group sampled T = 2, individual mice): 0
- Score T = 0 hour (Meropenem 40 mg/kg single dose, group sampled T = 5, individual mice): 0
- log10 CFU Mean Blood (Meropenem 40 mg/kg single dose, sampling T = 2, not significant vs vehicle): 3.76 log10 CFU
- log10 CFU Blood [1]: 3.60 log10 CFU and 3.57 log10 CFU and 4.11 log10 CFU
- log10 CFU Mean Blood [2]: 3.10** log10 CFU
- log10 CFU Blood [3]: 3.20 log10 CFU and 2.85 log10 CFU and 3.26 log10 CFU
- Score T = 2 hours [4]: 1
- Score T = 5 hours [4]: 0
- log10 CFU mean PF (Meropenem 40 mg/kg single dose, sampling T = 2, p < 0.01 vs vehicle): 3.92** log10 CFU
- log10 CFU PF [1]: 4.12 log10 CFU and 3.40 log10 CFU and 4.24 log10 CFU
- log10 CFU mean PF [2]: 4.21** log10 CFU
- log10 CFU PF [3]: 4.38 log10 CFU and 4.00 log10 CFU and 4.26 log10 CFU
